Earlier results as cited in PMC2110886 (PLoS ONE, 2007).

Tested on: Seasonal influenza strains
Set-up: method as in PMID 15709056
Conditions: in children; cited from earlier work

## CCOC(=O)C1=C[C@@H](OC(CC)CC)[C@H](NC(C)=O)[C@@H](N)C1 [Oseltamivir, oseltamivir, reference compound]
  rate of resistance to oseltamivir: 4%
